Test [1] has as its system A431 cells [human epidermoid carcinoma, overexpressing HER1 (EGFR, ErbB1)]. Kind of test: In vitro tumor cell proliferation assay (Cell Titer-Glo luminescent cell viability), A431 cells. Format: cell-based. Conditions: A-431, 72 h, 72 hours of drug exposure, Cell Titer-Glo readout, read-out: IC50, anti-proliferative activity in A431 cells. In general terms: Cellular ATP, detected with luciferase, serves as a proxy for viable cell number.

Test [2] deals with BT474 [human breast carcinoma, overexpressing HER2 (ErbB2)]. Kind of test: In vitro tumor cell proliferation assay (Cell Titer-Glo luminescent cell viability), BT474 cells. Format: cell-based. As to conditions: BT-474, 72 h, 72 hours of drug exposure, Cell Titer-Glo readout, read-out: IC50, anti-proliferative activity in BT474 cells.

Where only a bound is given, the exact number is not on record here.

In general, IC50 refers to the concentration needed to halve the response being measured. Regarding `OCC(O)c1ccc2c(c1)sc1ncnc(Nc3ccc4c(cnn4Cc4cccc(F)c4)c3)c12` (centres unmarked) [Example 115, 1-(4-{[1-(3-fluorobenzyl)-1H-indazol-5-yl]amino}[1]benzothieno [2,3-d]pyrimidin-7-yl)ethane-1,2-diol], the half-inhibitory concentration (IC50) is at most 5 µM in test [1] and at most 0.5 µM in test [2].
On the same counts, the results for `OC[C@@H](O)c1ccc2c(c1)sc1ncnc(Nc3ccc4c(cnn4Cc4cccc(F)c4)c3)c12` [Example 116, (1S)-1-(4-{[1-(3-fluorobenzyl)-1H-indazol-5-yl]amino}[1]benzothieno [2,3-d]pyrimidin-7-yl)ethane-1,2-diol] are at most 5 µM and at most 0.5 µM.
For the compound `OC[C@H](O)c1ccc2c(c1)sc1ncnc(Nc3ccc4c(cnn4Cc4cccc(F)c4)c3)c12` [Example 117, (1R)-1-(4-{[1-(3-fluorobenzyl)-1H-indazol-5-yl]amino}[1]benzothieno [2,3-d]pyrimidin-7-yl)ethane-1,2-diol], the IC50 in test [1] is at most 5 µM; in test [2], at most 0.5 µM.
As to `CCOC(=O)C(C(=O)OCC)c1ccc2c(c1)sc1ncnc(Nc3ccc4c(cnn4Cc4cccc(F)c4)c3)c12` [Example 118, diethyl (4-{[1-(3-fluorobenzyl)-1H-indazol-5-yl]amino}[1]benzothieno [2,3-d]pyrimidin-7-yl)malonate], the IC50 is at most 50 µM in test [1] and at most 5 µM in test [2].
On the same counts, the results for `Fc1cccc(Cn2ncc3cc(Nc4ncnc5sc6cc(N7CCNCC7)ccc6c45)ccc32)c1` [Example 119, N-[1-(3-fluorobenzyl)-1H-indazol-5-yl]-7-piperazin-1-yl[1]benzothieno [2,3-d]pyrimidin-4-amine] are at most 5 µM and at most 0.5 µM.
On the same counts, the results for `Fc1cccc(Cn2ncc3cc(Nc4ncnc5sc6cc(N7CCOCC7)ccc6c45)ccc32)c1` [Example 120, N-[1-(3-fluorobenzyl)-1H-indazol-5-yl]-7-morpholin-4-yl[1] benzothieno[2,3-d]pyrimidin-4-amine] are at most 50 µM and at most 0.5 µM.
In the same order, the values of `O=C(O)Cc1ccc2c(c1)sc1ncnc(Nc3ccc4c(cnn4Cc4cccc(F)c4)c3)c12` [Example 121, (4-{[1-(3-fluorobenzyl)-1H-indazol-5-yl]amino}[1]benzothieno[2,3-d]pyrimidin-7-yl)acetic acid] are at most 50 µM and at most 5 µM.
For `CS(=O)(=O)CCNC(=O)Cc1ccc2c(c1)sc1ncnc(Nc3ccc4c(cnn4Cc4cccc(F)c4)c3)c12` [Example 122, 2-(4-{[1-(3-fluorobenzyl)-1H-indazol-5-yl]amino}[1]benzothieno[2,3-d]pyrimidin-7-yl)-N-[2-(methylsulfonyl)ethyl] acetamide], the IC50 in test [1] was at most 5 µM; in test [2] it was at most 0.5 µM.
On to `O=C(Cc1ccc2c(c1)sc1ncnc(Nc3ccc4c(cnn4Cc4cccc(F)c4)c3)c12)NC1CN2CCC1CC2` (centres unmarked) [Example 123, N-1-azabicyclo[2.2.2]oct-3-yl-2-(4-{[1-(3-fluorobenzyl)-1H-indazol-5-yl]amino}[1]benzothieno [2,3-d]pyrimidin-7-yl)acetamide], for which the IC50 in test [1] is at most 5 µM; in test [2] it was at most 0.5 µM.
`CN1CCN(C(=O)Cc2ccc3c(c2)sc2ncnc(Nc4ccc5c(cnn5Cc5cccc(F)c5)c4)c23)CC1` [Example 124, N-[1-(3-fluorobenzyl)-1H-indazol-5-yl]-7-[2-(4-methylpiperazin-1-yl)-2-oxoethyl][1]benzothieno[2,3-d] pyrimidin-4-amine]: the IC50 in test [1] is at most 5 µM; in test [2], at most 0.5 µM.
As to `CN(C)[C@H]1CCN(C(=O)Cc2ccc3c(c2)sc2ncnc(Nc4ccc5c(cnn5Cc5cccc(F)c5)c4)c23)C1` [Example 125, 7-{2-[3-(dimethylamino)pyrrolidin-1-yl]-2-oxoethyl}-N-[1-(3-fluorobenzyl)-1H-indazol-5-yl] [1]benzothieno[2,3-d]pyrimidin-4-amine], the IC50 was at most 5 µM in test [1] and at most 0.5 µM in test [2].
In the same order, the values of `CN(C)CCNC(=O)Cc1ccc2c(c1)sc1ncnc(Nc3ccc4c(cnn4Cc4cccc(F)c4)c3)c12` [Example 126, N-[2-(dimethylamino)ethyl]-2-(4-{[1-(3-fluorobenzyl)-1H-indazol-5-yl]amino}[1]benzothieno[2,3-d]pyrimidin-7-yl)acetamide] are at most 5 µM and at most 0.5 µM.
In the same order, the values of `OCCc1ccc2c(c1)sc1ncnc(Nc3ccc4c(cnn4Cc4cccc(F)c4)c3)c12` [Example 127, 2-(4-{[1-(3-fluorobenzyl)-1H-indazol-5-yl]amino}[1]benzothieno [2,3-d]pyrimidin-7-yl)ethanol] are at most 5 µM and at most 0.5 µM.
On the same counts, the results for `CN1CCN(CCc2ccc3c(c2)sc2ncnc(Nc4ccc5c(cnn5Cc5cccc(F)c5)c4)c23)CC1` [Example 128, N-[1-(3-fluorobenzyl)-1H-indazol-5-yl]-7-[2-(4-methylpiperazin-1-yl)ethyl][1]benzothieno[2,3-d] pyrimidin-4-amine] are at most 5 µM and at most 0.5 µM.
For the compound `Fc1cccc(Cn2ncc3cc(Nc4ncnc5sc6cc(CCN7CCOCC7)ccc6c45)ccc32)c1` [Example 129, N-[1-(3-fluorobenzyl)-1H-indazol-5-yl]-7-(2-morpholin-4-ylethyl) [1]benzothieno[2,3-d]pyrimidin-4-amine], the figures for the IC50 in test [1] and in test [2] were at most 5 µM and at most 0.5 µM, respectively.
For `C=Cc1ccc2c(c1)sc1ncnc(Nc3ccc4c(cnn4Cc4ccccn4)c3)c12` [Example 130, N-[1-(pyridin-2-ylmethyl)-1H-indazol-5-yl]-7-vinyl[1] benzothieno[2,3-d]pyrimidin-4-amine], the values for the IC50 in test [1] and in test [2] were at most 50 µM and at most 0.5 µM, respectively.
In the same order, the values of `OCC(O)c1ccc2c(c1)sc1ncnc(Nc3ccc4c(cnn4Cc4ccccn4)c3)c12` (centres unmarked) [Example 131, 1-(4-{[1-(pyridin-2-ylmethyl)-1H-indazol-5-yl]amino}[1]benzothieno [2,3-d]pyrimidin-7-yl)ethane-1,2-diol] are at most 50 µM and at most 0.5 µM.
In the same order, the values of `OCCc1ccc2c(c1)sc1ncnc(Nc3ccc4c(cnn4Cc4ccccn4)c3)c12` [Example 132, 2-(4-{[1-(pyridin-2-ylmethyl)-1H-indazol-5-yl]amino}[1]benzothieno [2,3-d]pyrimidin-7-yl)ethanol] are at most 5 µM and at most 0.5 µM.
Turning to `OCCc1ccc2c(c1)sc1ncnc(Nc3ccc4c(ccn4Cc4ccccc4)c3)c12` [Example 133, 2-{4-[(1-benzyl-1H-indol-5-yl)amino][1]benzothieno[2,3-d]pyrimidin-7-yl}ethanol], the IC50 in test [1] was at most 50 µM; in test [2], at most 0.5 µM.
As for `CCOC(=O)Cc1ccc2c(c1)sc1ncnc(Nc3ccc(OCc4cscn4)c(Cl)c3)c12` [Example 134, ethyl (4-{[3-chloro-4-(1,3-thiazol-4-ylmethoxy)phenyl]amino}[1]benzothieno[2,3-d]pyrimidin-7-yl)acetate], the figures for the IC50 in test [1] and in test [2] were at most 50 µM and at most 5 µM, respectively.
Consider `O=C(O)Cc1ccc2c(c1)sc1ncnc(Nc3ccc(OCc4cscn4)c(Cl)c3)c12` [Example 135, (4-{[3-chloro-4-(1,3-thiazol-4-ylmethoxy)phenyl]amino}[1]benzothieno[2,3-d]pyrimidin-7-yl) acetic acid], for which the IC50 in test [1] is at most 50 µM; in test [2] it was at most 5 µM.
In the same order, the values of `CN(C)[C@@H]1CCN(C(=O)Cc2ccc3c(c2)sc2ncnc(Nc4ccc(OCc5cscn5)c(Cl)c4)c23)C1` [Example 136, N-[3-chloro-4-(1,3-thiazol-4-ylmethoxy)phenyl]-7-{2-[(3R)-3-(dimethylamino)pyrrolidin-1-yl]-2-oxoethyl}[1]benzothieno[2,3-d] pyrimidin-4-amine] are at most 5 µM and at most 0.5 µM.
In the same order, the values of `O=C(Cc1ccc2c(c1)sc1ncnc(Nc3ccc(OCc4cscn4)c(Cl)c3)c12)N1CCOCC1` [Example 137, N-[3-chloro-4-(1,3-thiazol-4-ylmethoxy)phenyl]-7-(2-morpholin-4-yl-2-oxoethyl)[1]benzothieno [2,3-d]pyrimidin-4-amine] are at most 50 µM and at most 5 µM.
On the same counts, the results for `CN1CCN(C(=O)Cc2ccc3c(c2)sc2ncnc(Nc4ccc(OCc5cscn5)c(Cl)c4)c23)CC1` [Example 138, N-[3-chloro-4-(1,3-thiazol-4-ylmethoxy)phenyl]-7-[2-(4-methylpiperazin-1-yl)-2-oxoethyl][1]benzothieno[2,3-d] pyrimidin-4-amine] are at most 5 µM and at most 5 µM.
With `O=C(Cc1ccc2c(c1)sc1ncnc(Nc3ccc(OCc4cscn4)c(Cl)c3)c12)NCCCN1CCOCC1` [Example 139, 2-(4-{[3-chloro-4-(1,3-thiazol-4-ylmethoxy)phenyl]amino}[1]benzothieno[2,3-d]pyrimidin-7-yl)-N-(3-morpholin-4-ylpropyl) acetamide], the IC50 in test [1] was at most 50 µM; in test [2], at most 5 µM.
In the same order, the values of `O=C(Cc1ccc2c(c1)sc1ncnc(Nc3ccc(OCc4cscn4)c(Cl)c3)c12)NCCN1CCOCC1` [Example 140, 2-(4-{[3-chloro-4-(1,3-thiazol-4-ylmethoxy)phenyl]amino}[1]benzothieno[2,3-d]pyrimidin-7-yl)-N-(2-morpholin-4-ylethyl) acetamide] are at most 50 µM and at most 5 µM.
On the same counts, the results for `O=C(Cc1ccc2c(c1)sc1ncnc(Nc3ccc(OCc4cscn4)c(Cl)c3)c12)NCCO` [Example 141, 2-(4-{[3-chloro-4-(1,3-thiazol-4-ylmethoxy)phenyl]amino}[1]benzothieno[2,3-d]pyrimidin-7-yl)-N-(2-hydroxyethyl)acetamide] are at most 50 µM and at most 5 µM.
In the same order, the values of `CN(C)CCNC(=O)Cc1ccc2c(c1)sc1ncnc(Nc3ccc(OCc4cscn4)c(Cl)c3)c12` [Example 142, 2-(4-{[3-chloro-4-(1,3-thiazol-4-ylmethoxy)phenyl]amino}[1]benzothieno[2,3-d]pyrimidin-7-yl)-N-[2-(dimethylamino)ethyl] acetamide] are at most 50 µM and at most 0.5 µM.

(Values after patent publication US7750017B2, “Heterocycles” (Bayer Schering Pharma Aktiengesellschaft, priority 2004, dated 2010).)
